Laboratory results published in PMC3116189, “Novel Natural Inhibitors of CYP1A2 Identified by in Silico and in Vitro Screening” (International Journal of Molecular Sciences, 2011).
“Also recorded” adds a separate entry of the source. Where a name gives a salt, the structure may show the parent alone.

target: T1, CYP1A2 (Homo sapiens, UniProt P05177); assay: in vitro; format: biochemical; details: 1 μM active ingredient, Rh CYP1A2-mediated phenacetin O-deethylation, test dataset of 202 herb ingredients
T1 sequence (P05177 1-516): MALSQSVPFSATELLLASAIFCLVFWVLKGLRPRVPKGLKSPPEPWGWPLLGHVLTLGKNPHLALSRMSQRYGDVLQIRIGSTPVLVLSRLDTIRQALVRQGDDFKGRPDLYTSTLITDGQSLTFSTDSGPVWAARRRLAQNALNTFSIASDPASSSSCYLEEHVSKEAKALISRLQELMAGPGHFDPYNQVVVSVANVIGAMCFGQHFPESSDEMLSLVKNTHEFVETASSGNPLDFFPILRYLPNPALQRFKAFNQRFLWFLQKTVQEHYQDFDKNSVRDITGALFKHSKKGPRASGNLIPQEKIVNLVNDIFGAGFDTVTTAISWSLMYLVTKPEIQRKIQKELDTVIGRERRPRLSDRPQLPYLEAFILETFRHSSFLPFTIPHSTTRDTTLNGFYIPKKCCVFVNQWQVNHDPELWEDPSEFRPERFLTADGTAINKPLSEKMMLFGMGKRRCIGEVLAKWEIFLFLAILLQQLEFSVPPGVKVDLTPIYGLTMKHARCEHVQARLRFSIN
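Further: recombinant CYP1A2 incubated for 1 h at 37 °C, with the reaction started by an NADPH-generating system.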
Protocol: A total of 18 candidate compounds selected by pharmacophore and docking were examined for their potential to inhibit rhCYP1A2 phenacetin O-deethylation activity at a test concentration of 1 μM.
The basic incubation medium contained 100 mM potassium phosphate buffer (PH 7.4), 50 pmol recombinant human CYP1A2, 25 μM phenacetin and 1 μM active ingredients. The final incubation volume was 200 μL. After 5 min pre-incubation at 37 °C, the reaction was initiated by the addition of NADPH-generating system (5 mM MgCl2, 10 mM glucose 6-phosphates, 1 mM NADPH, and 2.5 U per mL glucose 6-phosphate dehydrogenase). Incubations were performed in a 37 °C shaking water bath for 1 h. Reactions were stopped by adding 0.4 mL of ice-cold acetonitrile containing 0.2 mg/L tinidazole (IS). […] The column was maintained at 35 °C and the injection volume was 10 μL.

Compound | % of Control Indication Activity (Mean) [%]
Lobetyolin | > 90
COc1ccc(-c2oc3cc(OC)c(OC)c(O)c3c(=O)c2OC)cc1O [Vitexicarpin] | > 90
Echinacoside | > 90
COc1cc2c(cc1O)CC[n+]1cc3c(OC)c(OC)ccc3cc1-2.[Cl-] [Jatrorrhizine Hydrochloride] | > 90
Astragaloside | > 90
CCOC(=O)/C=C/c1ccc(O)c(O)c1 [Caffeic acid ethyl ester] | > 90
C[C@@H]1CCCCCCCCCCCCC(=O)C1 [Muscone] | > 90
Rhodiosin | > 90
Veratramin | > 90
COc1cc(/C=C/C(=O)O)ccc1O [Ferulic acid] | > 90
Ginkgolide B | > 90

same assay, conditions: 1 μM test compound, 25 μM phenacetin, average of duplicate determinations

Compound | % of Control Indication Activity [%]
OC[C@H]1O[C@@H](Oc2cc(O)cc(/C=C/c3ccc(O)cc3)c2)[C@H](O)[C@@H](O)[C@@H]1O [zhang 713, Piceid] | >90

same assay, conditions: 1 μM test concentration; listed as 616

Compound | inhibitory activity to CYP1A2 (10% or greater inhibition at 1 μM)
COc1cc(C[C@H]2COC(=O)[C@@H]2Cc2ccc(O)c(OC)c2)ccc1O [zhang 616, (+)-Matairesinol] | found to have inhibition of CYP1A2 activity; also recorded: confirmed to have inhibitory activities to CYP1A2

same assay, conditions: human, recombinant enzyme, pH 7.4

Compound | activity at 1 h, 1 μM [%]
O=C/C=C/c1ccccc1 [Cinnamaldehyde] | > 90
OC[C@H]1O[C@@H](OCCc2ccc(O)cc2)[C@H](O)[C@@H](O)[C@@H]1O [Salidroside] | > 90
COc1cc(C(=O)O[C@H]2[C@@H]3C=CO[C@@H](O[C@@H]4O[C@H](CO)[C@@H](O)[C@H](O)[C@H]4O)[C@@H]3[C@@]3(CO)O[C@@H]23)ccc1O [Picroside-II] | > 90
Cc1cc(O)c2c(c1)C(=O)c1cc(O)cc(O)c1C2=O [Emodin] | > 90
C=C1CC[C@H]2C(=C)CC[C@H]3C(=C)C(=O)O[C@@H]3[C@@H]12 [Dehydrocostus lactone] | > 90
Cc1cc(O)c2c(c1)C(=O)c1cccc(O)c1C2=O [Chrysophanol] | 77.7
C[C@@H]1O[C@@H](O[C@H]2[C@H](Oc3cc(O)c4c(c3)O[C@H](c3ccc(O)cc3)CC4=O)O[C@H](CO)[C@@H](O)[C@@H]2O)[C@H](O)[C@H](O)[C@H]1O [Naringin] | > 90
C[C@H]1O[C@@H](O[C@H]2CC[C@@]3(C)[C@@H](CC[C@]4(C)[C@@H]3C=C[C@]35OC[C@@]6(CCC(C)(C)C[C@H]63)[C@@H](O)C[C@]54C)[C@]2(C)CO)[C@H](O)[C@@H](O[C@@H]2O[C@H](CO)[C@@H](O)[C@H](O)[C@H]2O)[C@H]1O [Saikosaponin A] | > 90
C=CCc1ccc(O)c(-c2ccc(O)c(CC=C)c2)c1 [Honokiol] | 33.6
O=C1C[C@@H](c2ccc(O[C@@H]3O[C@H](CO)[C@@H](O)[C@H](O)[C@H]3O)cc2)Oc2cc(O)ccc21 [Liquiritin] | > 90
O=C(O)/C=C/c1ccccc1 [Cinnamic acid] | > 90
COc1cc(C2Oc3cc([C@H]4Oc5cc(O)cc(O)c5C(=O)[C@@H]4O)ccc3OC2CO)ccc1O (stereo partly shown) [Silibinin] | > 90

same assay, conditions: human, recombinant enzyme, pH 7.4; 1 μM active ingredient, Rh CYP1A2-mediated phenacetin O-deethylation, test dataset of 202 herb ingredients; read-out: % of Control Indication Activity (Mean)

Compound | activity at 1 h, 1 μM [%]
COc1cc2c[n+](C)c3c4cc5c(cc4ccc3c2cc1OC)OCO5 [Nitidine] | > 90

same assay, conditions: human, recombinant human CYP1A2, pH 7.4, probe phenacetin (25 μM), O-deethylation to acetaminophen; 1 μM active ingredient, Rh CYP1A2-mediated phenacetin O-deethylation, test dataset of 202 herb ingredients; read-out: % of Control Indication Activity (Mean)

Compound | activity at 1 h, 1 μM [%]
C=C1C(=O)[C@]23[C@H](O)[C@H]1CC[C@H]2[C@@]12CO[C@]3(O)[C@@H](O)[C@@H]1C(C)(C)CC[C@@H]2O [Oridonin] | > 90
COc1cc(-c2coc3cc4c(c(OC)c3c2=O)OCO4)cc(OC)c1OC [Irisflorentin] | > 90
O=C(O)/C=C/c1ccc(O)c(O)c1 [Caffeic acid] | > 90
O=c1cc(-c2ccc(O)c(O)c2)oc2cc(O)cc(O)c12 [Luteolin] | 87.4
CC(=O)OC1CC2CCC1(C)C2(C)C (stereo not shown) [Bornylacetate] | > 90
CC(C)=CCC[C@](C)(O[C@@H]1O[C@H](CO)[C@@H](O)[C@H](O)[C@H]1O)[C@H]1CC[C@]2(C)[C@@H]1[C@H](O)C[C@@H]1[C@@]3(C)CC[C@H](O)C(C)(C)[C@@H]3[C@@H](O[C@@H]3O[C@H](CO)[C@@H](O)[C@H](O)[C@H]3O)C[C@]12C [Ginsenoside Rg1] | > 90
O=C(O)[C@H]1O[C@@H](Oc2cc3oc(-c4ccc(O)cc4)cc(=O)c3c(O)c2O)[C@H](O)[C@@H](O)[C@@H]1O [Scutellarin] | > 90
O=C1c2c(O)cccc2C([C@@H]2O[C@H](CO)[C@@H](O)[C@H](O)[C@H]2O)c2cc(CO)cc(O)c21 (stereo partly shown) [Bar baloin] | > 90
C=C1C(=O)O[C@@H]2/C=C(\C)CC/C=C(\C)CC[C@@H]12 [Costunolide] | > 90
CC1CCC(C(C)C)C(O)C1 (stereo not shown) [Menthol] | > 90
COC(=O)C1=CC[C@@]23CC[C@@H]([C@@](C)(/C=C/C=C(\C)C(=O)O)OC2=O)[C@@]3(OC(C)=O)CC1 [Pseudolaric acid B] | > 90
C/C1=C\CC[C@]23O[C@H]2[C@@H](OC3=O)c2c(C)coc2C1 [Linderane] | > 90
O=C(O)c1cc(O)c2c(c1)C(=O)c1cccc(O)c1C2=O [Rhein] | > 90
OC[C@H]1O[C@@H](O[C@@H]2OC=C[C@H]3[C@H](O)[C@@H]4O[C@]4(CO)[C@@H]23)[C@H](O)[C@@H](O)[C@@H]1O [Catalpo l] | > 90
COc1ccc2cc3[n+](cc2c1OC)CCc1cc2c(cc1-3)OCO2 [Berberine Hydrochloride] | > 90
C[C@@]12C[C@@]3(O)O[C@@H](O1)[C@]1(COC(=O)c4ccccc4)[C@H]3C[C@@]12O[C@@H]1O[C@H](CO)[C@@H](O)[C@H](O)[C@H]1O [Paeoniflorin] | > 90
COc1c(O)cc2c(c1O)[C@@H]1O[C@H](CO)[C@@H](O)[C@H](O)[C@H]1OC2=O [Bergenin] | > 90
COc1cc(O)cc2c1C(=O)C[C@@H](c1ccccc1)O2 [Alpinetin] | > 90
C[C@@]1(CO)C[C@@H](O)C[C@@]2(C)[C@@H]3CC[C@](C)([C@@H](O)CO)C=C3CC[C@H]12 [Kirenol] | > 90
COc1cc2c(cc1OC)[C@@H]1Cc3ccc(OC)c(OC)c3CN1CC2 [Tetrahydropalmatine] | > 90
COc1cc2ccc(=O)oc2cc1O [Scopoletin] | > 90

same assay, conditions: human, recombinant human CYP1A2, pH 7.4, probe phenacetin (25 μM), O-deethylation to acetaminophen; 1 μM test compound, 25 μM phenacetin, average of duplicate determinations; read-out: % of Control Indication Activity

Compound | activity at 1 h, 1 μM [%]
O=c1c(OC2OC(CO)C(O)C2O)c(-c2ccc(O)c(O)c2)oc2cc(O)cc(O)c12 [zhang 206, quercetin-3-O-α-D-arabinofuranose] | > 90
COc1cc(C2Oc3c(ccc4ccc(=O)oc34)O[C@H]2CO)ccc1O (stereo partly shown) [zhang 271, 5′-demethoxy Daphneticin] | > 90

same assay, conditions: recombinant enzyme

Compound | % of Control Indication Activity (Mean)
CC1(C)CC[C@]2(C(=O)O)CC[C@]3(C)C(=CC[C@@H]4[C@@]5(C)CC[C@H](O[C@@H]6O[C@H](C(=O)O)[C@@H](O)[C@H](O[C@@H]7OC[C@@H](O)[C@H](O)[C@H]7O)[C@H]6O)C(C)(C)[C@@H]5CC[C@]43C)[C@@H]2C1 [Momordin Ic] | > 90
COc1cc2ccc(=O)oc2c(OC)c1O [Isofraxidin] | > 90
COc1ccc([C@@H]2CC(=O)c3c(O)cc(O[C@@H]4O[C@H](CO[C@@H]5O[C@@H](C)[C@H](O)[C@@H](O)[C@H]5O)[C@@H](O)[C@H](O)[C@H]4O)cc3O2)cc1O [Hesperidin] | > 90

same assay, conditions: recombinant enzyme, pH 7.4

Compound | activity [%]
COC1=C[C@@H]2[C@@H]3Cc4ccc(OC)c(O)c4[C@]2(CCN3C)CC1=O [Sinomenine] | > 90
CN[C@@H](C)[C@H](O)c1ccccc1 [Ephedrine] | > 90

same assay, conditions: recombinant enzyme, pH 7.4; 1 μM active ingredient, Rh CYP1A2-mediated phenacetin O-deethylation, test dataset of 202 herb ingredients; read-out: % of Control Indication Activity (Mean)

Compound | activity [%] | activity at 1 h, 1 μM [%]
C[C@H]1CC[C@@]2(OC1)O[C@H]1C[C@H]3[C@@H]4CC[C@@H]5C[C@@H](O)CC[C@]5(C)[C@H]4CC[C@]3(C)[C@H]1[C@@H]2C [Sarsasapogenin] | > 90 | 
O=C1C[C@@H]2OCC=C3CN4CC[C@]56c7ccccc7N1[C@H]5[C@H]2[C@H]3C[C@H]46 [Strychnine] |  | > 90
COc1cccc2c1cc([N+](=O)[O-])c1c(C(=O)O)cc3c(c12)OCO3 [Aristolochic Acid] |  | > 90
CC(C)(C)[C@]1(O)CC2OC(=O)CC23C(=O)OC2OC(=O)[C@H](O)C231 (stereo partly shown) [Bilobalide] |  | > 90
O=c1ccc2cc3ccoc3cc2o1 [Psoralen] |  | 10.8
CC1=C2C(=O)[C@H]3[C@@H](CC=C4C[C@@H](O)CC[C@@]43C)[C@@H]2CC[C@]12O[C@@H]1C[C@H](C)CN[C@H]1[C@H]2C [Jervine] |  | > 90
CC(C)=CCOc1c2occc2cc2ccc(=O)oc12 [Imperatorin] | > 90 | 
